Each structure is given as a SMILES string. pKi: −log10 of the molar value.

One experiment addresses T1, BRD4 (BDII_E352-M457) (Homo sapiens, UniProt O60885).
T1 construct: proliferation; Protocol; made in house
Kind of experiment: TR-FRET bromodomain binding assay, second bromodomain of BRD4. Conditions: His-tagged BD2, 30 nM Alexa647 probe; TR-FRET protocol A-E given per row. The method, boiled down: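 His-tagged BRD4 BD2 ([…]) competed against an Alexa647-labelled BET-inhibitor probe in TR-FRET. Buffer was 20 mM sodium phosphate pH 6.0, 50 mM NaCl, 1 mM EDTA, 0.01% Triton X-100, 1 mM DTT, with method D DMSO series of 2.5 mM–800 nM (stock range). IC50 from 4-parameter fit, Ki from probe Kd and concentration.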
A general note: TR-FRET usually uses a lanthanide donor and a delayed reading to cut background.

The next experiment deals with T2, BRD4 (BDI_K57-E168) (Homo sapiens, UniProt O60885).
T2 construct: BD1: amino acids K57-E168; made in house
Description: TR-FRET bromodomain binding assay, first bromodomain of BRD4. Conditions: His-tagged BD1, 100 nM Alexa647 probe; TR-FRET protocol A-E given per row. The method in brief: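 His-tagged BRD4 BD1 (K57-E168), 8 nM, with 1 nM Eu-anti-His antibody and 100 nM Alexa647-labelled BET-inhibitor probe in pH 6.0 phosphate buffer, 2% DMSO. TR-FRET read after 1 h at room temperature. IC50 from 4-parameter fit, converted to Ki using probe Kd and concentration.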

With `CC(C)CCC(=O)Nc1ccc(Oc2ccc(F)cc2F)c(-c2cn(C)c3c(=O)[nH]ccc23)c1` [Example 147, N-[4-(2,4-difluorophenoxy)-3-(1-methyl-7-oxo-6,7-dihydro-1H-pyrrolo[2,3-c]pyridin-3-yl)phenyl]-4-methylpentanamide], the pKi was 6.87 at BRD4 (BDII_E352-M457) and 7.23 at BRD4 (BDI_K57-E168).

As to `CCS(=O)(=O)c1ccc(Oc2ccc(C(F)(F)F)cc2)c(-c2cn(C)c3c(=O)[nH]ccc23)c1` [Example 77, 3-{5-(ethylsulfonyl)-2-[4-(trifluoromethyl)phenoxy]phenyl}-1-methyl-1,6-dihydro-7H-pyrrolo[2,3-c]pyridin-7-one], the pKi at BRD4 (BDII_E352-M457) was 6.86; on BRD4 (BDI_K57-E168), 7.21.

Turning to `Cc1c[nH]c(=O)c2c1c(-c1cc(S(C)(=O)=O)ccc1OCCC1CC1)cn2C` [Example 124, 3-[2-(2-cyclopropylethoxy)-5-(methylsulfonyl)phenyl]-1,4-dimethyl-1,6-dihydro-7H-pyrrolo[2,3-c]pyridin-7-one], the pKi on BRD4 (BDII_E352-M457) was 6.98; at BRD4 (BDI_K57-E168), 6.90.

As for `Cn1cc(-c2cc(S(C)(=O)=O)ccc2NCCC2CCCC2)c2cc[nH]c(=O)c21` [Example 72, 3-{2-[(2-cyclopentylethyl)amino]-5-(methylsulfonyl)phenyl}-1-methyl-1,6-dihydro-7H-pyrrolo[2,3-c]pyridin-7-one], the pKi at BRD4 (BDII_E352-M457) is 6.01; at BRD4 (BDI_K57-E168), 6.31.

Take `CCS(=O)(=O)c1ccc(Oc2ccncc2)c(-c2cn(C)c3c(=O)[nH]ccc23)c1` [Example 74, 3-[5-(ethylsulfonyl)-2-(pyridin-4-yloxy)phenyl]-1-methyl-1,6-dihydro-7H-pyrrolo[2,3-c]pyridin-7-one]: the figures for the pKi on BRD4 (BDII_E352-M457) and at BRD4 (BDI_K57-E168) were 6.41 and below 5.62, respectively.

With `Cc1ncc(CC(=O)Nc2ccc(Oc3ccc(F)cc3F)c(-c3cn(C)c4c(=O)[nH]ccc34)c2)s1` [Example 163, N-[4-(2,4-difluorophenoxy)-3-(1-methyl-7-oxo-6,7-dihydro-1H-pyrrolo[2,3-c]pyridin-3-yl)phenyl]-2-(2-methyl-1,3-thiazol-5-yl)acetamide], the pKi was 7.09 on BRD4 (BDII_E352-M457) and 7.62 at BRD4 (BDI_K57-E168).

For the compound `CCS(=O)(=O)Nc1ccc(Oc2ccc(F)cc2F)c(-c2cn(C)c3c(=O)[nH]c(C(=O)N4CCC(O)CC4)cc23)c1` [Example 194, N-[4-(2,4-difluorophenoxy)-3-{5-[(4-hydroxypiperidin-1-yl)carbonyl]-1-methyl-7-oxo-6,7-dihydro-1H-pyrrolo[2,3-c]pyridin-3-yl]phenyl}ethanesulfonamide], the results for the pKi at BRD4 (BDII_E352-M457) and on BRD4 (BDI_K57-E168) were 7.16 and 7.98, respectively.

In the case of `Cn1cc(-c2cc(CNC3CCNCC3)ccc2Oc2ccc(F)cc2F)c2cc[nH]c(=O)c21` [Example 112, 3-{2-(2,4-difluorophenoxy)-5-[(piperidin-4-ylamino)methyl]phenyl}-1-methyl-1,6-dihydro-7H-pyrrolo[2,3-c]pyridin-7-one], the pKi at BRD4 (BDII_E352-M457) and on BRD4 (BDI_K57-E168) was 5.98 each time.

Regarding `Cn1cc(-c2cc(CS(C)(=O)=O)cnc2Cl)c2cc[nH]c(=O)c21` [Example 143, 3-{2-chloro-5-[(methylsulfonyl)methyl]pyridin-3-yl}-1-methyl-1,6-dihydro-7H-pyrrolo[2,3-c]pyridin-7-one], the pKi at BRD4 (BDII_E352-M457) was 5.77; at BRD4 (BDI_K57-E168) it was 6.35.

Take `Cn1cc(-c2cc(CNS(=O)(=O)c3cc(Cl)sc3Cl)ccc2Oc2ccc(F)cc2F)c2cc[nH]c(=O)c21` [Example 138, 2,5-dichloro-N-[4-(2,4-difluorophenoxy)-3-(1-methyl-7-oxo-6,7-dihydro-1H-pyrrolo[2,3-c]pyridin-3-yl)benzyl]thiophene-3-sulfonamide]: the figures for the pKi on BRD4 (BDII_E352-M457) and at BRD4 (BDI_K57-E168) were below 5.40 and 5.94, respectively.

As to `CNC(=O)c1cc2c(-c3cn(C)c4c(=O)[nH]ccc34)c(OCC3CC3)ccc2[nH]1` [Example 107, 5-(cyclopropylmethoxy)-N-methyl-4-(1-methyl-7-oxo-6,7-dihydro-1H-pyrrolo[2,3-c]pyridin-3-yl)-1H-indole-2-carboxamide], the pKi on BRD4 (BDII_E352-M457) was 6.39; at BRD4 (BDI_K57-E168), below 5.62.

Consider `CCS(=O)(=O)c1ccc(Oc2ccc(Cl)cc2Cl)c(-c2cn(C)c3c(=O)[nH]ccc23)c1` [Example 82, 3-[2-(2,4-dichlorophenoxy)-5-(ethylsulfonyl)phenyl]-1-methyl-1,6-dihydro-7H-pyrrolo[2,3-c]pyridin-7-one], for which the pKi was 7.31 on BRD4 (BDII_E352-M457) and 7.18 at BRD4 (BDI_K57-E168).

Turning to `Cn1cc(-c2cc(S(C)(=O)=O)ccc2OCCC2CCCC2)c2cc[nH]c(=O)c21` [Example 35, 3-[2-(2-cyclopentylethoxy)-5-(methylsulfonyl)phenyl]-1-methyl-1,6-dihydro-7H-pyrrolo[2,3-c]pyridin-7-one], the negative-log Ki (pKi) on BRD4 (BDII_E352-M457) is 6.95; on BRD4 (BDI_K57-E168) it was 7.38.

As for `CCS(=O)(=O)c1ccc(Oc2cncc(C)n2)c(-c2cn(C)c3c(=O)[nH]ccc23)c1` [Example 86, 3-{5-(ethylsulfonyl)-2-[(6-methylpyrazin-2-yl)oxy]phenyl}-1-methyl-1,6-dihydro-7H-pyrrolo[2,3-c]pyridin-7-one], the negative-log Ki (pKi) at BRD4 (BDII_E352-M457) is 6.12; on BRD4 (BDI_K57-E168) it was 6.16.

For the compound `Cn1cc(-c2cc(S(C)(=O)=O)ccc2OCCC23CC4CC(CC(C4)C2)C3)c2cc[nH]c(=O)c21` [Example 65], the pKi was 5.58 at BRD4 (BDII_E352-M457) and 6.38 on BRD4 (BDI_K57-E168).

In the case of `CCS(=O)(=O)c1ccc(Oc2cccnc2)c(-c2cn(C)c3c(=O)[nH]ccc23)c1` [Example 81, 3-[5-(ethylsulfonyl)-2-(pyridin-3-yloxy)phenyl]-1-methyl-1,6-dihydro-7H-pyrrolo[2,3-c]pyridin-7-one], the pKi was 7.00 on BRD4 (BDII_E352-M457) and 7.09 at BRD4 (BDI_K57-E168).

Turning to `CCS(=O)(=O)c1ccc(Oc2cccc(Cl)c2Cl)c(-c2cn(C)c3c(=O)[nH]ccc23)c1` [Example 84, 3-[2-(2,3-dichlorophenoxy)-5-(ethylsulfonyl)phenyl]-1-methyl-1,6-dihydro-7H-pyrrolo[2,3-c]pyridin-7-one], the figures for the pKi at BRD4 (BDII_E352-M457) and at BRD4 (BDI_K57-E168) were 7.60 and 7.26, respectively.

In the case of `CCS(=O)(=O)c1ccc(Oc2cncnc2)c(-c2cn(C)c3c(=O)[nH]ccc23)c1` [Example 88, 3-[5-(ethylsulfonyl)-2-(pyrimidin-5-yloxy)phenyl]-1-methyl-1,6-dihydro-7H-pyrrolo[2,3-c]pyridin-7-one], the results for the negative logarithm of the Ki (pKi) at BRD4 (BDII_E352-M457) and on BRD4 (BDI_K57-E168) were 6.13 and 6.54, respectively.

One may read the pKi as the Ki on a negative log10 scale, so that one unit is a factor of ten.

Source of the values: patent US9321764B2, “Dihydro-pyrrolopyridinone inhibitors” (AbbVie Inc., priority 2013, dated 2016).
